# Results published in PubChem BioAssay (NCI).
#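 GI50 marks 50% less growth. At the TGI there is no net growth.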
# Columns and labels:
# Assay in all cases: growth of human tumour cells (NCI), 384-well format
# 786-0 renal = system: 786-0 renal
# A498 renal = system: A498 renal
# A549 NSCLC = system: A549 NSCLC
# ACHN renal = system: ACHN renal
# BT-549 breast = system: BT-549 breast
# CAKI-1 renal = system: CAKI-1 renal
# CCRF-CEM leukemia = system: CCRF-CEM leukemia
# COLO 205 colon = system: COLO 205 colon
# DU-145 prostate = system: DU-145 prostate
# EKVX NSCLC = system: EKVX NSCLC
# HCC-2998 colon = system: HCC-2998 colon
# HCT-15 colon = system: HCT-15 colon
# HL-60(TB) leukemia = system: HL-60(TB) leukemia
# HOP-62 NSCLC = system: HOP-62 NSCLC
# HOP-92 NSCLC = system: HOP-92 NSCLC
# HS 578T breast = system: HS 578T breast
# HT29 colon = system: HT29 colon
# IGROV1 ovarian = system: IGROV1 ovarian
# K-562 leukemia = system: K-562 leukemia
# KM12 colon = system: KM12 colon
# LOX IMVI melanoma = system: LOX IMVI melanoma
# M14 melanoma = system: M14 melanoma
# MALME-3M melanoma = system: MALME-3M melanoma
# MCF7 breast = system: MCF7 breast
# MDA-MB-231 breast = system: MDA-MB-231 breast
# MDA-MB-435 melanoma = system: MDA-MB-435 melanoma
# MDA-MB-468 breast = system: MDA-MB-468 breast
# MOLT-4 leukemia = system: MOLT-4 leukemia
# NCI-H226 lung = system: NCI-H226 lung
# NCI-H23 lung = system: NCI-H23 lung
# NCI-H322M lung = system: NCI-H322M lung
# NCI-H460 NSCLC = system: NCI-H460 NSCLC
# NCI-H522 lung = system: NCI-H522 lung
# NCI/ADR-RES ovarian = system: NCI/ADR-RES ovarian
# OVCAR-3 ovarian = system: OVCAR-3 ovarian
# OVCAR-4 ovarian = system: OVCAR-4 ovarian
# OVCAR-5 ovarian = system: OVCAR-5 ovarian
# OVCAR-8 ovarian = system: OVCAR-8 ovarian
# PC-3 prostate = system: PC-3 prostate
# RPMI-8226 leukemia = system: RPMI-8226 leukemia
# RXF 393 renal = system: RXF 393 renal
# SF-268 CNS = system: SF-268 CNS
# SF-295 CNS = system: SF-295 CNS
# SF-539 CNS = system: SF-539 CNS
# SK-MEL-28 melanoma = system: SK-MEL-28 melanoma
# SK-MEL-5 melanoma = system: SK-MEL-5 melanoma
# SK-OV-3 ovarian = system: SK-OV-3 ovarian
# SN12C renal = system: SN12C renal
# SNB-19 CNS = system: SNB-19 CNS
# SNB-75 CNS = system: SNB-75 CNS
# SR leukemia = system: SR leukemia
# SW-620 colon = system: SW-620 colon
# T-47D breast = system: T-47D breast
# TK-10 renal = system: TK-10 renal
# UACC-257 melanoma = system: UACC-257 melanoma
# UACC-62 melanoma = system: UACC-62 melanoma
# UO-31 renal = system: UO-31 renal
structure (smiles),measurement,setting,value
C=CC(=O)N1CCC(c2ccc(C(N)=O)c(-c3ccc(Oc4ccccc4)cc3)n2)CC1,GI50,786-0 renal,29.2 µM
same,TGI,786-0 renal,> 100 µM
same,GI50,A498 renal,21.3 µM
same,TGI,A498 renal,69.9 µM
same,GI50,A549 NSCLC,34.8 µM
same,TGI,A549 NSCLC,> 100 µM
same,GI50,ACHN renal,32.4 µM
same,TGI,ACHN renal,> 100 µM
same,GI50,BT-549 breast,17.9 µM
same,TGI,BT-549 breast,41.8 µM
same,GI50,CAKI-1 renal,23.5 µM
same,TGI,CAKI-1 renal,> 100 µM
same,GI50,CCRF-CEM leukemia,17.4 µM
same,TGI,CCRF-CEM leukemia,34.2 µM
same,GI50,COLO 205 colon,89.8 µM
same,TGI,COLO 205 colon,> 100 µM
same,GI50,DU-145 prostate,24.7 µM
same,TGI,DU-145 prostate,79.9 µM
same,GI50,EKVX NSCLC,22.6 µM
same,TGI,EKVX NSCLC,84.1 µM
same,GI50,HCC-2998 colon,29.5 µM
same,TGI,HCC-2998 colon,90.3 µM
same,GI50,HCT-15 colon,30.6 µM
same,TGI,HCT-15 colon,> 100 µM
same,GI50,HL-60(TB) leukemia,15 µM
same,TGI,HL-60(TB) leukemia,28.3 µM
same,GI50,HOP-62 NSCLC,25.4 µM
same,TGI,HOP-62 NSCLC,83.7 µM
same,GI50,HOP-92 NSCLC,20 µM
same,TGI,HOP-92 NSCLC,91 µM
same,GI50,HS 578T breast,21.1 µM
same,TGI,HS 578T breast,58.9 µM
same,GI50,HT29 colon,59.6 µM
same,TGI,HT29 colon,> 100 µM
same,GI50,IGROV1 ovarian,21.3 µM
same,TGI,IGROV1 ovarian,56 µM
same,GI50,K-562 leukemia,28.8 µM
same,TGI,K-562 leukemia,> 100 µM
same,GI50,KM12 colon,37.3 µM
same,TGI,KM12 colon,> 100 µM
same,GI50,LOX IMVI melanoma,25.1 µM
same,TGI,LOX IMVI melanoma,62.9 µM
same,GI50,M14 melanoma,33.9 µM
same,TGI,M14 melanoma,> 100 µM
same,GI50,MALME-3M melanoma,29.7 µM
same,TGI,MALME-3M melanoma,83.4 µM
same,GI50,MCF7 breast,28.6 µM
same,TGI,MCF7 breast,> 100 µM
same,GI50,MDA-MB-231 breast,30.8 µM
same,TGI,MDA-MB-231 breast,> 100 µM
same,GI50,MDA-MB-435 melanoma,38.7 µM
same,TGI,MDA-MB-435 melanoma,> 100 µM
same,GI50,MDA-MB-468 breast,3.99 µM
same,TGI,MDA-MB-468 breast,10.2 µM
same,GI50,MOLT-4 leukemia,12.7 µM
same,TGI,MOLT-4 leukemia,25.7 µM
same,GI50,NCI-H226 lung,22.7 µM
same,TGI,NCI-H226 lung,72.4 µM
same,GI50,NCI-H23 lung,28.3 µM
same,TGI,NCI-H23 lung,> 100 µM
same,GI50,NCI-H322M lung,25.3 µM
same,TGI,NCI-H322M lung,> 100 µM
same,GI50,NCI-H460 NSCLC,27.4 µM
same,TGI,NCI-H460 NSCLC,71.5 µM
same,GI50,NCI-H522 lung,12.2 µM
same,TGI,NCI-H522 lung,30.7 µM
same,GI50,NCI/ADR-RES ovarian,16.6 µM
same,TGI,NCI/ADR-RES ovarian,37.2 µM
same,GI50,OVCAR-3 ovarian,27.1 µM
same,TGI,OVCAR-3 ovarian,66.5 µM
same,GI50,OVCAR-4 ovarian,25.7 µM
same,TGI,OVCAR-4 ovarian,69.7 µM
same,GI50,OVCAR-5 ovarian,> 100 µM
same,TGI,OVCAR-5 ovarian,> 100 µM
same,GI50,OVCAR-8 ovarian,23.8 µM
same,TGI,OVCAR-8 ovarian,66.1 µM
same,GI50,PC-3 prostate,41.2 µM
same,TGI,PC-3 prostate,> 100 µM
same,GI50,RPMI-8226 leukemia,15.1 µM
same,TGI,RPMI-8226 leukemia,29.3 µM
same,GI50,RXF 393 renal,24.9 µM
same,TGI,RXF 393 renal,73.5 µM
same,GI50,SF-268 CNS,35.3 µM
same,TGI,SF-268 CNS,> 100 µM
same,GI50,SF-295 CNS,41.1 µM
same,TGI,SF-295 CNS,> 100 µM
same,GI50,SF-539 CNS,27 µM
same,TGI,SF-539 CNS,78.5 µM
same,GI50,SK-MEL-28 melanoma,95.1 µM
same,TGI,SK-MEL-28 melanoma,> 100 µM
same,GI50,SK-MEL-5 melanoma,18 µM
same,TGI,SK-MEL-5 melanoma,35.8 µM
same,GI50,SK-OV-3 ovarian,26.9 µM
same,TGI,SK-OV-3 ovarian,> 100 µM
same,GI50,SN12C renal,33.1 µM
same,TGI,SN12C renal,> 100 µM
same,GI50,SNB-19 CNS,39.7 µM
same,TGI,SNB-19 CNS,> 100 µM
same,GI50,SNB-75 CNS,37.6 µM
same,TGI,SNB-75 CNS,> 100 µM
same,GI50,SR leukemia,11.7 µM
same,TGI,SR leukemia,26.7 µM
same,GI50,SW-620 colon,32.9 µM
same,TGI,SW-620 colon,84.9 µM
same,GI50,T-47D breast,16.9 µM
same,TGI,T-47D breast,87.2 µM
same,GI50,TK-10 renal,25.2 µM
same,TGI,TK-10 renal,81.4 µM
same,GI50,UACC-257 melanoma,18.3 µM
same,TGI,UACC-257 melanoma,42.1 µM
same,GI50,UACC-62 melanoma,40.4 µM
same,TGI,UACC-62 melanoma,> 100 µM
same,GI50,UO-31 renal,74.1 µM
same,TGI,UO-31 renal,> 100 µM
